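Briefly, cells in 96-well plates were exposed to five compound concentrations for 48 h, and endpoints were estimated by linear interpolation. The concentration for 50% growth inhibition is given as GI50. At the TGI there is no net growth.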
How the values were obtained:
Assay in all cases: NCI-60 cell line screen, 48 h; in the data active means GI50 below about 0.43 µM; inactive means the rest
786-0 renal = tested on: 786-0 renal
A498 renal = tested on: A498 renal
A549 NSCLC = tested on: A549 NSCLC
ACHN renal = tested on: ACHN renal
BT-549 breast = tested on: BT-549 breast
CAKI-1 renal = tested on: CAKI-1 renal
CCRF-CEM leukemia = tested on: CCRF-CEM leukemia
COLO 205 colon = tested on: COLO 205 colon
DU-145 prostate = tested on: DU-145 prostate
HCC-2998 colon = tested on: HCC-2998 colon
HCT-116 colon = tested on: HCT-116 colon
HCT-15 colon = tested on: HCT-15 colon
HL-60(TB) leukemia = tested on: HL-60(TB) leukemia
HOP-62 NSCLC = tested on: HOP-62 NSCLC
HOP-92 NSCLC = tested on: HOP-92 NSCLC
HS 578T breast = tested on: HS 578T breast
HT29 colon = tested on: HT29 colon
IGROV1 ovarian = tested on: IGROV1 ovarian
K-562 leukemia = tested on: K-562 leukemia
KM12 colon = tested on: KM12 colon
LOX IMVI melanoma = tested on: LOX IMVI melanoma
M14 melanoma = tested on: M14 melanoma
MALME-3M melanoma = tested on: MALME-3M melanoma
MCF7 breast = tested on: MCF7 breast
MDA-MB-231 breast = tested on: MDA-MB-231 breast
MDA-MB-435 = tested on: MDA-MB-435
MOLT-4 leukemia = tested on: MOLT-4 leukemia
NCI-H226 lung = tested on: NCI-H226 lung
NCI-H23 lung = tested on: NCI-H23 lung
NCI-H460 lung = tested on: NCI-H460 lung
NCI-H522 lung = tested on: NCI-H522 lung
NCI/ADR-RES ovarian = tested on: NCI/ADR-RES ovarian
OVCAR-3 ovarian = tested on: OVCAR-3 ovarian
OVCAR-4 ovarian = tested on: OVCAR-4 ovarian
OVCAR-5 ovarian = tested on: OVCAR-5 ovarian
OVCAR-8 ovarian = tested on: OVCAR-8 ovarian
PC-3 prostate = tested on: PC-3 prostate
RPMI-8226 leukemia = tested on: RPMI-8226 leukemia
RXF 393 renal = tested on: RXF 393 renal
SF-268 CNS = tested on: SF-268 CNS
SF-295 CNS = tested on: SF-295 CNS
SF-539 CNS = tested on: SF-539 CNS
SK-MEL-2 melanoma = tested on: SK-MEL-2 melanoma
SK-MEL-28 melanoma = tested on: SK-MEL-28 melanoma
SK-MEL-5 melanoma = tested on: SK-MEL-5 melanoma
SK-OV-3 ovarian = tested on: SK-OV-3 ovarian
SN12C renal = tested on: SN12C renal
SNB-19 CNS = tested on: SNB-19 CNS
SNB-75 CNS = tested on: SNB-75 CNS
SW-620 colon = tested on: SW-620 colon
T-47D breast = tested on: T-47D breast
TK-10 renal = tested on: TK-10 renal
U251 CNS = tested on: U251 CNS
UACC-257 melanoma = tested on: UACC-257 melanoma
UACC-62 melanoma = tested on: UACC-62 melanoma
UO-31 renal = tested on: UO-31 renal

CCOC(=O)Nc1ccc2nc(-c3cscn3)[nH]c2c1
20.6 µM: TGI (SF-539 CNS)
18.9 µM: TGI (COLO 205 colon)
13.6 µM: TGI (RXF 393 renal)
23.4 µM: TGI (OVCAR-3 ovarian)
1.93 µM: TGI (MDA-MB-435)
97.5 µM: TGI (HT29 colon)
92.6 µM: TGI (HS 578T breast)
> 49.1 µM: TGI (SK-MEL-5 melanoma)
inactive: GI50 (786-0 renal) 9.16 µM | GI50 (A498 renal) 3.5 µM | GI50 (A549 NSCLC) 5.99 µM | GI50 (ACHN renal) 8.45 µM | GI50 (BT-549 breast) 7.1 µM | GI50 (CAKI-1 renal) 5.63 µM | GI50 (CCRF-CEM leukemia) 7.01 µM | GI50 (COLO 205 colon) 3.64 µM | GI50 (DU-145 prostate) 9.61 µM | GI50 (HCC-2998 colon) 18.5 µM | GI50 (HCT-116 colon) 3.87 µM | GI50 (HCT-15 colon) 2.2 µM | GI50 (HL-60(TB) leukemia) 3.17 µM | GI50 (HOP-62 NSCLC) 4.91 µM | GI50 (HOP-92 NSCLC) > 26.2 µM | GI50 (HS 578T breast) 8.3 µM | GI50 (HT29 colon) 2.6 µM | GI50 (IGROV1 ovarian) 6.3 µM | GI50 (K-562 leukemia) 0.942 µM | GI50 (KM12 colon) 2.05 µM | GI50 (LOX IMVI melanoma) 5.18 µM | GI50 (M14 melanoma) 2.86 µM | GI50 (MALME-3M melanoma) 1.75 µM | GI50 (MCF7 breast) 2.68 µM | GI50 (MDA-MB-231 breast) 7.81 µM | GI50 (MOLT-4 leukemia) 5.31 µM | GI50 (NCI-H226 lung) 30.7 µM | GI50 (NCI-H23 lung) 8.47 µM | GI50 (NCI-H460 lung) 4.05 µM | GI50 (NCI-H522 lung) 2.43 µM | GI50 (NCI/ADR-RES ovarian) 2.71 µM | GI50 (OVCAR-3 ovarian) 3.79 µM | GI50 (OVCAR-4 ovarian) 48.9 µM | GI50 (OVCAR-5 ovarian) 26.9 µM | GI50 (OVCAR-8 ovarian) 7.89 µM | GI50 (PC-3 prostate) 10.4 µM | GI50 (RPMI-8226 leukemia) 4.6 µM | GI50 (RXF 393 renal) 2.41 µM | GI50 (SF-268 CNS) 18 µM | GI50 (SF-295 CNS) 4.78 µM | GI50 (SF-539 CNS) 3.32 µM | GI50 (SK-MEL-2 melanoma) 3.25 µM | GI50 (SK-MEL-28 melanoma) 7.23 µM | GI50 (SK-MEL-5 melanoma) 3.33 µM | GI50 (SK-OV-3 ovarian) 3.61 µM | GI50 (SN12C renal) 5.6 µM | GI50 (SNB-19 CNS) 5.73 µM | GI50 (SNB-75 CNS) 2.84 µM | GI50 (SW-620 colon) 2.95 µM | GI50 (T-47D breast) 5.32 µM | GI50 (TK-10 renal) 28.6 µM | GI50 (U251 CNS) 4.05 µM | GI50 (UACC-257 melanoma) 5.21 µM | GI50 (UACC-62 melanoma) 4.08 µM | GI50 (UO-31 renal) 8.77 µM
57.6 µM: TGI (SF-295 CNS)
29.4 µM: TGI (SNB-75 CNS)
21 µM: TGI (A498 renal) | TGI (NCI-H522 lung)
active: GI50 (MDA-MB-435) 0.398 µM
29.8 µM: TGI (SK-OV-3 ovarian)
> 74.9 µM: TGI (NCI/ADR-RES ovarian)
> 100 µM: TGI (786-0 renal) | TGI (A549 NSCLC) | TGI (ACHN renal) | TGI (BT-549 breast) | TGI (CAKI-1 renal) | TGI (CCRF-CEM leukemia) | TGI (DU-145 prostate) | TGI (HCC-2998 colon) | TGI (HCT-116 colon) | TGI (HCT-15 colon) | TGI (HL-60(TB) leukemia) | TGI (HOP-62 NSCLC) | TGI (HOP-92 NSCLC) | TGI (IGROV1 ovarian) | TGI (K-562 leukemia) | TGI (KM12 colon) | TGI (LOX IMVI melanoma) | TGI (M14 melanoma) | TGI (MALME-3M melanoma) | TGI (MCF7 breast) | TGI (MDA-MB-231 breast) | TGI (MOLT-4 leukemia) | TGI (NCI-H226 lung) | TGI (NCI-H23 lung) | TGI (NCI-H460 lung) | TGI (OVCAR-4 ovarian) | TGI (OVCAR-5 ovarian) | TGI (OVCAR-8 ovarian) | TGI (PC-3 prostate) | TGI (RPMI-8226 leukemia) | TGI (SF-268 CNS) | TGI (SK-MEL-2 melanoma) | TGI (SK-MEL-28 melanoma) | TGI (SN12C renal) | TGI (SNB-19 CNS) | TGI (SW-620 colon) | TGI (T-47D breast) | TGI (TK-10 renal) | TGI (U251 CNS) | TGI (UACC-257 melanoma) | TGI (UACC-62 melanoma) | TGI (UO-31 renal)
